Here are results for four compounds from US10398689B2, “Benzopiperidine derivative, preparation method thereof and medical use thereof” (Jiangsu Hengrui Medicine Co., Ltd., priority 2015, dated 2019).

Structures are written as SMILES.

In general, Emax refers to the size of the effect at its maximum, as opposed to the concentration needed.

Common to all, as to type: cell-based
One experiment has as its system MCF7 cells. Nature of the experiment: Inhibition of the proliferation of MCF7 cells (Cell Titer-Glo). Particulars: Homo sapiens, MCF-7 cells, 72 hours, read-out: IC50 value of inhibition effect on the proliferation of MCF7 cells. As for the experimental part:
The object of this experiment was to determine the inhibition effect of the compounds on the proliferation activity of MCF7 cells, and the in vitro activity of the compounds was evaluated according to the IC50 values.
MCF-7 cells (Cell Bank of Chinese Academy of Sciences typical culture preservation Committee, TChu 74) were inoculated into the MEM medium (Hyclone, SH30024.01B) containing 10% FBS (Gibco, 10099-141), 1% sodium pyruvate (Sigma, S8636), and 1% nonessential amino acids (Sigma, M7145) in a 96-well plate with a density of 40,000 cells/well, and the cells were incubated under the conditions of 37° C., and 5% CO2. The compound was prepared as a 20 mM stock solution that was later diluted to 1000× final concentration with 100% DMSO, and then diluted with 20-fold medium containing 2% FBS. After incubation for 24 hours, the medium was removed and 90 μl of the medium containing 2% FBS and 10 μl of the drug were added to each well, 10 […] of DMSO was added to the control group, and the blank group contained only 100 μl medium containing 2% FBS. The plate was gently shaken and incubated in a incubator at 37° C., 5% CO2. After 72 hours later, 50 μl of mixed Cell Titer-Glo (Promega, G7571) was added to each well. The plate was shaken until the ingredients were mixed uniformly, and placed at room temperature for 10 minutes, then the chemiluminescence signal value was determined. The inhibition effect of the compound AZD9496 at 100 nM on the proliferation of MCF-7 cells was set to 100%, the maximum inhibition rate of other compounds=(chemiluminescence signal valuenegative control−chemiluminescence signal valuecompound 100 nm)/(chemiluminescence signal valuenegative control−chemiluminescence signal valueAZD9496 100 nm)×100%, and the negative control was a well with 0.5% DMSO.
The values of the chemiluminescence signals vs the logarithmic concentrations of the compounds were plotted using Graghpad Prism to obtain the IC50 values.
Background: In ATP-based viability assays light output follows the ATP content of the culture.

For the next experiment, the target named is T1, ERα (Homo sapiens, UniProt P03372).
T1 construct: host or cells: MCF-7
T1 sequence (P03372 1-595): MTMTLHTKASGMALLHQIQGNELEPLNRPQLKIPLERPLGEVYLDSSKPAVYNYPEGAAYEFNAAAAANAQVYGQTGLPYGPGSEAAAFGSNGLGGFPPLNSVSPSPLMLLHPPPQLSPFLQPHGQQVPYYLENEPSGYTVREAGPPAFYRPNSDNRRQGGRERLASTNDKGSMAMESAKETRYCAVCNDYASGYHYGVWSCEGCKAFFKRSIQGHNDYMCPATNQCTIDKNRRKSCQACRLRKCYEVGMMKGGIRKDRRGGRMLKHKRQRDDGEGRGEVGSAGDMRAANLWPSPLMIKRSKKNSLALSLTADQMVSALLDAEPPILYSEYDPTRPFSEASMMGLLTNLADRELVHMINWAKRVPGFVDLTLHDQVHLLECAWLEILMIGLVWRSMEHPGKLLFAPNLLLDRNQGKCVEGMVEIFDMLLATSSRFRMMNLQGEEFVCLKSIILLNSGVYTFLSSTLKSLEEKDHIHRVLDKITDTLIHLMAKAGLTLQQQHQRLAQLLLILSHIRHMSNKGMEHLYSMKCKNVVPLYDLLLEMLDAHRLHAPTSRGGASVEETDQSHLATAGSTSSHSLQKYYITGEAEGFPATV
Nature of the experiment: Degradation effect on ERα in MCF-7 cells (ERα Duoset ELISA). Particulars: MCF7; compound at 3 μM, relative to positive control AZD-9496 at 3 μM set to 100%. The protocol:
In order to determine the degradation effect on ER induced by the compound of present invention, the following method was used to determine the degradation effect of the compounds of the present invention on ER.
MCF-7 cell line (TChu 74, Cell Bank of Chinese Academy of Sciences typical culture preservation Committee)
ERα Duoset Kit (#DYC5715E, R&D System)
MCF-7 cells well incubated in DMEM/F-12 medium containing 10% FBS.
On the first day of the experiment, MCF-7 cells were resuspended in DMEM/F-12 medium containing 10% FBS treated by activated carbon, then inoculated into a 48-well plate with a density of 50,000 cells/well and incubated for 22-24 hours.
On the second day of the experiment, the test compound was diluted with medium and added to a 48-well plate. The ERα-capture antibody was diluted to 1 μg/ml with PBS, and added with 100 μl/well to a 96-well plate at 100 μl/well. The plate was sealed and coated overnight at room temperature.
On the third day of the experiment, the coated 96-well plate was washed twice with PBS, added with a sealing solution (1% BSA in PBS) at 110 μl/well and sealed for 1 hour at room temperature. The 48-well plate was washed once and the residual liquid was removed. Then, 60 μl of lysis buffer (6 M urea, 1 mM EDTA, 0.5% Triton X-100, 1 mM PMSF, Protease Inhibitor cocktail) was added to each well. After lysis on ice for 15 minutes, the diluent (1 mM EDTA, 0.5% TritonX-100 dissolved in PBS) was added. The cell-diluted lysate was transferred to a 96-well plate at 100 μl/well, then the plate was incubated at room temperature for 2 hours. The diluted primary antibody was added after the plate was washed 4 times with a washing liquid (PBST). After incubation for 1 hour, the 96-well plate was washed 4 times, and the second antibody was added, then the plate was incubated for 30 minutes. After the plate was washed with a washing liquid, TMB chromogenic solution was added and incubated for 15 minutes. The reaction was stopped by the addition of 1 M H2SO4, then the light absorption at a wavelength of 450 nm was read. The degradation effect of the compound AZD9496 at 3 μM was set to 100%, the Emax of other compounds=(ODnegative control−ODcompound 3 μM)/(ODnegative control−ODAZD9496 3 μM)×100%, and the negative control was a well with DMSO.
Background: An ELISA detects its analyte on a solid surface through an enzyme-linked reagent.

Another experiment has as its target T2, ER (estrogen receptor) (Homo sapiens, UniProt P03372).
T2 construct: MCF-7/ERE-luciferase monoclonal cells were selected by transfection of MCF-7; host or cells: MCF-7/ERE-luciferase (only the ERE-luciferase reporter was transfected)
T2 sequence (P03372 1-595): T1 sequence (P03372 1-595)
Nature of the experiment: Inhibition of the binding of estrogen (E) to estrogen receptor (ER), MCF-7/ERE-luciferase reporter cells. The conditions noted are these: MCF-7/ERE-luciferase cells, 0.1 nM estradiol, 24 hours, chemiluminescence; read-out: IC50 value of inhibition effect on the binding of E to ER. The protocol:
The compounds of the present invention have an inhibition effect on the binding of E (estrogen) to ER (estrogen receptor), thereby blocking the binding of a complex of E and ER complex to ERE (estrogen responsive element), and subsequently blocking the expression of downstream luciferase protein.
The inhibition effect of the compounds on the binding of E to ER in vitro was tested by the following method.
The object of this experiment was to determine the inhibition effect of the compounds on the binding of E to ER, and the in vitro activity of the compounds was evaluated according to the IC50 values.
ERE was cloned into the upstream of the luciferase gene, and MCF-7/ERE-luciferase monoclonal cells were selected by transfection of MCF-7 (Cell Bank of Chinese Academy of Sciences typical culture preservation Committee, TCHu74). MCF-7/ERE-luciferase cells were inoculated into the MEM medium (hyclone, SH30024.01B) containing 10% charcoal stripped FBS (Moregate, FBSF), 1% sodium pyruvate (Sigma, S8636), 1% nonessential amino acids (Sigma, M7145) and 500 μg/ml G418 in a 96-well plates with a density of 30,000 cells/well, and the cells were incubated under the conditions of 37° C., and 5% CO2. The drug was prepared as a 20 mM stock solution that was later diluted with 100% DMSO in 10 fold concentration gradient, and then diluted 20-fold with the medium DMEM. After incubation for 24 hours, the medium was removed, then 0.1 nM estradiol (Sigma, E2758) and 10 μl of the drug diluted with the medium were added to each well, and the control group was added with DMSO. The plate was gently shaken and incubated in a incubator at 37° C., 5% CO2. After 24 hours, the cell culture medium was discarded, Then, 50 μl of the prepared luciferase substrate (Promega, E6110) was added to each well, and the plate was placed in the dark at room temperature for 10-15 minutes, then the chemiluminescence signal value was determined.
The inhibition effect of the compounds of the present invention on the binding of E to ER was tested by the experiment described above. The values of the chemiluminescence signal vs the logarithmic concentrations of the compounds were plotted using Graphpad Prism, and the measured IC50 values are shown in Table 1.
In general terms: Reporter assays use an easily measured gene product as a stand-in for the process of interest.

`CC1Cc2cc(-c3cnn(C)c3)ccc2C(c2c(F)cc(/C=C/C(=O)O)cc2F)N1c1ccc(C2CC2)cc1` [Example 4, (E)-3-(4-((1S,3R/1R,3S)-2-(4-Cyclopropylphenyl)-3-methyl-6-(1-methyl-1H-pyrazol-4-yl)-1,2,3,4-tetrahydroisoquinolin-1-yl)-3,5-difluorophenyl)acrylic acid]: the IC50 in the experiment with MCF7 cells was determined as 0.42 nM; on ER (estrogen receptor), 0.27 nM. This compound also displayed an Emax at 3 µM at ERα of 136%.

For the compound `CC(C)c1ccc(N2[C@@H](c3c(F)cc(/C=C/C(=O)O)cc3F)c3ccc(-c4cnn(C)c4)cc3C[C@@H]2C)cc1` (racemic) [Example 40, (E)-3-(3,5-Difluoro-4-((1S,3R/1R,3S)-2-(4-isopropylphenyl)-3-methyl-6-(1-methyl-1H-pyrazol-4-yl)-1,2,3,4-tetrahydroisoquinolin-1-yl)phenyl)acrylic acid], the IC50 in the experiment with MCF7 cells worked out at 0.23 nM; at ER (estrogen receptor) it was 0.6 nM. This compound also gave a maximal effect (Emax) at 3 µM on ERα of 115%.

Take `COc1ccc(N2C(C)Cc3cc(-c4cnn(C)c4)ccc3C2c2ccc(/C=C/C(=O)O)cc2)cc1` [Example 46, (E)-3-(4-((1R,3R/1S,3S)-2-(4-Methoxyphenyl)-3-methyl-6-(1-methyl-1H-pyrazol-4-yl)-1,2,3,4-tetrahydroisoquinolin-1-yl)phenyl)acrylic acid]: the IC50 in the experiment with MCF7 cells was 0.65 nM; at ER (estrogen receptor) it was 1.42 nM. In addition, at ERα, the Emax at 3 µM came to 111%.

With `CCc1ccc(N2[C@H](c3ccc(/C=C/C(=O)O)cc3)c3ccc(-c4cnn(C)c4)cc3C[C@H]2C)cc1` [Example 2, (E)-3-(4-((1R,3R)-2-(4-Ethylphenyl)-3-methyl-6-(1-methyl-1H-pyrazol-4-yl)-1,2,3,4-tetrahydroisoquinolin-1-yl)phenyl)acrylic acid], the figures for the IC50 with MCF7 cells and at ER (estrogen receptor) were 0.4 nM and 1.71 nM, respectively. At ERα, the Emax at 3 µM was determined as 114%.
